The supplement of paper PMC10307832

Assays:
Assay in all cases: relative viability (nuclei count vs DMSO), 5 days (fraction); higher = more cells survive
Masitinib + Tozasertib = compound: Cc1ccc(NC(=O)c2ccc(CN3CCN(C)CC3)cc2)cc1Nc1nc(-c2cccnc2)cs1 [Masitinib] + Cc1cc(Nc2cc(N3CCN(C)CC3)nc(Sc3ccc(NC(=O)C4CC4)cc3)n2)n[nH]1 [Tozasertib] (partner 0.1 µM)
In short: (§1)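 For relative viability, nuclei counts in treated wells were divided by those in vehicle wells. Lung cancer cell lines had been pin-tool dosed in 1536-well plates the day after seeding and cultured for 5 days, then fixed and stained in one step (final 0.05% Triton X-100, 1% formaldehyde, 1 ug/ml Hoechst) and imaged at 4×. Doses were one drug alone or a fixed anchor-drug dose plus five library-drug doses (not always all listed) in √10 steps, and values are duplicate-plate medians.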

[1] = compound: CC1=CC(=CC=C1)NC2=NC(=CS2)C3=CC=NC=C3 + O=C(c1cc(Cc2n[nH]c(=O)c3ccccc23)ccc1F)N1CCN(C(=O)C2CC2)CC1 [Olaparib] (partner 8 µM)
In short: as §1

Masitinib + Decitabine = compound: Cc1ccc(NC(=O)c2ccc(CN3CCN(C)CC3)cc2)cc1Nc1nc(-c2cccnc2)cs1 [Masitinib] + Nc1ncn([C@H]2C[C@H](O)[C@@H](CO)O2)c(=O)n1 [Decitabine] (partner 2 µM)
In short: as §1

[2] = compound: CC1=CC(=CC=C1)NC2=NC(=CS2)C3=CC=NC=C3 + CS(=O)(=O)CCNCc1ccc(-c2ccc3ncnc(Nc4ccc(OCc5cccc(F)c5)c(Cl)c4)c3c2)o1 [Lapatinib] (partner 2 µM)
In short: as §1

Cell Line | relative viability (Masitinib + Tozasertib; first compound 0.01 µM) | relative viability (Masitinib + Tozasertib; first compound 0.03162 µM) | relative viability (Masitinib + Tozasertib; first compound 0.1 µM) | relative viability (Masitinib + Tozasertib; first compound 0.3162 µM) | relative viability (Masitinib + Tozasertib; first compound 1 µM) | relative viability ([1]; first compound 0.08 µM) | relative viability ([1]; first compound 0.253 µM) | relative viability ([1]; first compound 0.8 µM) | relative viability ([1]; first compound 2.53 µM) | relative viability ([1]; first compound 8 µM) | relative viability (Masitinib + Decitabine; first compound 0.01 µM) | relative viability (Masitinib + Decitabine; first compound 0.03162 µM) | relative viability (Masitinib + Decitabine; first compound 0.1 µM) | relative viability (Masitinib + Decitabine; first compound 0.3162 µM) | relative viability (Masitinib + Decitabine; first compound 1 µM) | relative viability ([2]; first compound 0.08 µM) | relative viability ([2]; first compound 0.253 µM) | relative viability ([2]; first compound 0.8 µM) | relative viability ([2]; first compound 2.53 µM) | relative viability ([2]; first compound 8 µM)
LXF-289 | 0.214 | 0.174 | 0.2 | 0.232 | 0.177 | 1.02 | 0.994 | 1.04 | 1.05 | 0.927 | 0.332 | 0.394 | 0.435 | 0.369 | 0.41 | 0.815 | 0.93 | 0.938 | 0.823 | 0.807
NCI-H23 | 0.336 | 0.313 | 0.4 | 0.223 | 0.263 | 0.226 | 0.228 | 0.22 | 0.221 | 0.235 | 0.312 | 0.346 | 0.341 | 0.274 | 0.262 | 0.971 | 1.07 | 1.01 | 1 | 0.894
NCI-H322M | 0.452 | 0.513 | 0.485 | 0.449 | 0.467 | 0.687 | 0.76 | 0.725 | 0.613 | 0.575 | 0.626 | 0.733 | 0.612 | 0.719 | 0.706 | 0.538 | 0.518 | 0.519 | 0.572 | 0.662
NCI-H358 | 0.118 | 0.0987 | 0.114 | 0.113 | 0.104 | 0.547 | 0.519 | 0.521 | 0.5 | 0.521 | 0.184 | 0.195 | 0.243 | 0.189 | 0.192 | 0.433 | 0.476 | 0.554 | 0.607 | 0.604
NCI-H460 | 0.288 | 0.4 | 0.313 | 0.0644 | 0.168 | 0.368 | 0.344 | 0.355 | 0.278 | 0.263 | 0.307 | 0.378 | 0.45 | 0.455 | 0.462 | 0.875 | 0.901 | 0.887 | 1.11 | 0.692
NCI-H520 | 0.368 | 0.476 | 0.566 | 0.451 | 0.358 | 0.384 | 0.325 | 0.391 | 0.314 | 0.288 | 0.482 | 0.482 | 0.513 | 0.59 | 0.437 | 0.883 | 0.827 | 0.932 | 0.777 | 0.954
NCI-H596 | 0.972 | 0.73 | 1.07 | 1.08 | 0.716 | 0.674 | 0.546 | 0.673 | 0.6 | 0.613 | 0.994 | 0.959 | 1.11 | 1.14 | 0.934 | 0.854 | 0.974 | 0.819 | 0.94 | 1.01
NCI-H647 | 0.212 | 0.209 | 0.394 | 0.261 | 0.232 | 0.477 | 0.528 | 0.55 | 0.523 | 0.305 | 0.369 | 0.318 | 0.487 | 0.408 | 0.364 | 0.958 | 0.977 | 0.849 | 0.932 | 0.917
NCI-H650 | 0.642 | 0.732 | 0.717 | 0.745 | 0.665 | 0.338 | 0.348 | 0.392 | 0.368 | 0.367 | 0.307 | 0.343 | 0.308 | 0.298 | 0.36 | 0.708 | 0.815 | 1.32 |  | 0.975
NCI-H661 | 0.338 | 0.372 | 0.344 | 0.342 | 0.363 | 0.736 | 0.803 | 0.769 | 0.75 | 0.642 | 0.502 | 0.552 | 0.515 | 0.535 | 0.545 | 0.481 | 0.506 | 0.573 | 0.468 | 0.507
NCI-H727 | 0.691 | 0.597 | 0.69 | 0.664 | 0.548 | 0.67 |  | 0.679 |  | 0.743 | 0.808 | 1.03 | 0.763 | 0.729 | 0.781 | 0.489 | 0.777 | 0.674 | 0.706 | 0.668
NCI-H838 | 0.25 | 0.281 | 0.273 | 0.206 | 0.236 | 0.567 | 0.545 | 0.714 | 0.685 | 0.521 | 0.446 | 0.475 | 0.432 | 0.445 | 0.44 | 0.822 | 0.871 | 0.924 | 0.742 | 0.865
NCI-H1355 | 0.534 | 0.469 | 0.561 | 0.384 | 0.394 | 0.579 | 0.531 | 0.444 | 0.385 | 0.407 | 0.351 | 0.345 | 0.393 | 0.341 | 0.367 | 0.723 | 0.713 | 0.652 | 0.656 | 0.651
NCI-H1395 | 0.713 | 0.678 | 0.828 | 0.782 | 0.624 | 0.439 |  | 0.478 | 0.46 | 0.43 | 0.734 | 0.705 | 0.694 | 0.703 | 0.62 | 0.882 | 0.733 | 0.982 | 0.761 | 0.818
NCI-H1437 | 0.399 | 0.454 | 0.4 | 0.426 | 0.36 | 0.628 | 0.585 | 0.525 | 0.478 | 0.371 | 0.559 | 0.565 | 0.582 | 0.524 | 0.527 | 0.772 | 0.626 | 0.684 | 0.479 | 0.545
NCI-H1650 | 0.346 | 0.329 | 0.297 | 0.326 | 0.23 | 0.539 | 0.901 | 0.525 | 0.488 | 0.432 | 0.438 | 0.391 | 0.411 | 0.493 | 0.345 | 0.801 | 0.735 | 0.753 | 0.445 | 0.176
